This note sets out measurements from the NIST ThermoML archive (doi:10.1016/j.tca.2016.01.006).

A short description of series [1]: Molar enthalpy of transition or fusion. The note with it: DSC.
The conditions of series [2]: DTA.

The structures appear in SMILES notation. Numbers after ± are expanded uncertainties.

Regarding `CC1=C(CC(=O)O)c2cc(F)ccc2/C1=C\c1ccc([S+](C)[O-])cc1` (centres undefined), the “Molar enthalpy of transition or fusion” value in series [1] (Crystal 1) was found to be 5.45 ± 0.17 kcal/mol; in series [1] (Metastable crystal), 7.24 ± 0.17 kcal/mol. Further, the Normal melting temperature is 190.00 ± 2 °C in series [2] (Crystal 1) and 185.00 ± 2 °C in series [2] (Metastable crystal).
